Source: patent publication US7745446B2, “Pyrazolo[1,5-c]pyrimidines” (Bayer Schering Pharma Aktiengesellschaft, priority 2004, dated 2010)

Assays:
[1] = target: T1, GST-ΔPH-Akt1 (Homo sapiens, UniProt P31749); test: Biochemical ΔPH Akt1 assay (flashplate, 33P incorporation into histone 2B); conditions: 100 nM ATP, histone 2B substrate; read-out: ΔPHAkt1 inhibition: IC50
T1 construct: named GST-deltaPH-Akt1; 107-480aa; cloned in the pAcGl vector; GST (N); made in house; host or cells: SF9 insect cells (baculovirus vector pAcG1), co-expressed with PDK1
T1 sequence (P31749 107-480, stated change not applied): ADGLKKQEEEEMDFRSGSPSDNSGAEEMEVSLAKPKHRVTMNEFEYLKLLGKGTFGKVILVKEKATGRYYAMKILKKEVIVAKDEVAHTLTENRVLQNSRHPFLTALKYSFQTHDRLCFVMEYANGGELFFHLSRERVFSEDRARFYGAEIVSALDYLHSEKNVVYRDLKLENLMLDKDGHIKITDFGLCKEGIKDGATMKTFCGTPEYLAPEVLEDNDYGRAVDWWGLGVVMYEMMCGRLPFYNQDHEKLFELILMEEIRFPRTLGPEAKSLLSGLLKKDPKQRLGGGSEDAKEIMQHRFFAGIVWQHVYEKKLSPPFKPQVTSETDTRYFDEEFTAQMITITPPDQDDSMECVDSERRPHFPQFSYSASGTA
Source text: For the biochemical assay ΔPHAkt1 is used devoid of its PH domain as a GST fusion protein (named GST-deltaPH-Akt1; 107-480aa; cloned in the pAcGl vector (BD Biosciences Pharmingen)), co-expressed with PDK1 in SF9 insect cells. The protein is purified using glutathion-affinity chromatography by standard protocols.
In order to study the inhibition of Akt according to the invention, a flashplate-based assay has been developed.
The Akt1 assay is a biochemical assay using Akt1 devoid of its PH domain and co-expressed with PDK1 in insect cells. The GST-ΔPH-Akt1 assay is run in 96 well plates by incubating 100 ng/well GST-ΔPH-Akt1, 100 ng/well histone 2B (Roche, #223514) as substrate, 10 μl of compound of invention (test compounds were dissolved as 10 mM solutions in dimethylsulfoxide (DMSO) and subsequently diluted) and 100 nM ATP (including ^33P-ATP) in 100 μl of reaction buffer ([…], pH7,5; 3 mM MgCl2; 3 mM MnCl2; 3 μM Na-Orthovanadat; 1 mM DTT; 1 μg/ml PEG8000) for 80 minutes at 30° C. The reactions are terminated by adding 100 μl stopping buffer (2% H3PO4 for 5 minutes) and are washed 3 times by using washing buffer (0.9% NaCl). Relying on the incorporation of ^33P into the protein substrate histone 2B, the detection is based on the adhesion of the phosphorylated protein to the surface of scintillator-coated flash plates (NEN, USA; #SMP-200). This phosphorylation is measured by counting the plate for 60 sec. using a plate reader (Wallac Microbeta; Perkin Elmer, USA).

[2] = test system: MDA-MB-468 cells; test: Cellular proliferation/cytotoxicity assay (Alamar Blue), MDA-MB-468; conditions: Homo sapiens, MDA-MB-468, 48 h, read-out: Anti-proliferative/cytotoxic activity: IC50 MDA468
[3] = test system: MCF7 cells; test: Cellular proliferation/cytotoxicity assay (Alamar Blue), MCF7; conditions: Homo sapiens, MCF7, 48 h, read-out: Anti-proliferative/cytotoxic activity: IC50 MCF7
Protocol: The anti-proliferative activity of the compounds as described herein, is evaluated using MCF7 and MDA-MB-468 (ATCC HTB-22 and HTB-132) cell lines and the Alamar Blue (Resazurin) cell viability assay (O'Brien et al. Eur J Biochem 267, 5421-5426, 2000). Resazurin is reduced to the fluorescent resorufin by cellular dehydrogenase activity, correlating with viable, proliferating cells. Test compounds are dissolved as 10 mM solutions in DMSO and subsequently diluted. MCF7 or MDA-MB-434 cells were seeded into 96 well flat bottom plates at a density of 10000 cells/well (MCF7) or 5000 cells/well (MDA-MB-468) in a volume of 200 μl/well. 24 hours after seeding, 1 μl each of the compound dilutions are added into each well of the 96 well plates. Each compound dilution is tested as at least as duplicates. Wells containing untreated control cells were filled with 200 μl DMEM containing 0.5% v:v DMSO. The cells are then incubated with the substances for 48 hours at 37° C. in a humidified atmosphere containing 5% carbon dioxide. To determine cell viability, 20 μl of a Resazurin solution (Sigma; 90 mg/l) are added. After 4 hours incubation at 37° C. the fluorescence is measured at an extinction of 544 nm and an emission of 590 nm (Wallac Victor2; Perkin Elmer, USA). For the calculation of the cell viability the emission value from untreated cells is set as 100% viability and the emission rates of treated cells are set in relation to the values of untreated cells. Viabilities are expressed as % values. The corresponding IC50 values of the compounds for cytotoxic activity are determined from the concentration-effect curves by means of non-linear regression. The analysis of the data is performed using a biostatistical program (GraphPad Prism, USA).

IC50 [1] | SMILES | IC50 [2] | IC50 [3]
≤ 1.75 µM | O=C(Nc1ccc(Nc2nc(-c3ccc(-c4cccc([N+](=O)[O-])c4)cc3)cc3ccnn23)cc1)c1ccc2c(c1)CCNC2 [Example 80, 1,2,3,4-Tetrahydro-isoquinoline-6-carboxylic acid {4-[5-(3′-nitro-biphenyl-4-yl)-pyrazolo[1,5-c]pyrimidin-7-ylamino]-phenyl}-amide] | ≤ 13.6 µM | ≤ 16.9 µM
≤ 1.75 µM | O=C(Nc1ccc(Nc2nc(-c3ccc(Br)cc3)cc3ccnn23)cc1)c1ccc2c(c1)CCNC2 [Example 85, 1,2,3,4-Tetrahydro-isoquinoline-6-carboxylic acid {4-[5-(4-bromo-phenyl)-pyrazolo[1,5-c]pyrimidin-7-ylamino]-phenyl}-amide] | ≤ 13.6 µM | ≤ 16.9 µM
≤ 1.75 µM | NCCc1ccc(C(=O)Nc2cccc(Nc3nc(-c4cccc5c4oc4ccccc45)cc4ccnn34)c2)cc1 [Example 21, 4-(2-Amino-ethyl)-N-[3-(5-dibenzofuran-4-yl-pyrazolo[1,5-c]pyrimidin-7-ylamino)-phenyl]-benzamide] | – | –
≤ 1.75 µM | COc1ccc(-c2cccc(-c3cc4ccnn4c(Nc4ccc(NC(=O)c5ccc(CN)cc5)cc4)n3)c2)cc1 [Example 72, 4-Aminomethyl-N-{4-[5-(4′-methoxy-biphenyl-3-yl)-pyrazolo[1,5-c]pyrimidin-7-ylamino]-phenyl}-benzamide] | – | –
≤ 1.75 µM | O=C(Nc1ccc(Nc2nc(-c3ccc(-c4ccc(F)cc4)cc3)cc3ccnn23)cc1)c1ccc2c(c1)CCNC2 [Example 76, 1,2,3,4-Tetrahydro-isoquinoline-6-carboxylic acid {4-[5-(4′-fluoro-biphenyl-4-yl)-pyrazolo[1,5-c]pyrimidin-7-ylamino]-phenyl}amide] | – | –
≤ 1.75 µM | NCc1ccc(C(=O)Nc2ccc(Nc3nc(-c4ccc5cc(O)ccc5c4)cc4ccnn34)cc2)cc1 [Example 44, 4-Aminomethyl-N-{4-[5-(6-hydroxy-naphthalen-2-yl)-pyrazolo[1,5-c]pyrimidin-7-ylamino]-phenyl}-benzamide] | – | –
≤ 1.75 µM | NCc1cccc(C(=O)Nc2cccc(Nc3nc(-c4cccc5c4oc4ccccc45)cc4ccnn34)c2)c1 [Example 18, 3-Aminomethyl-N-[3-(5-dibenzofuran-4-yl-pyrazolo[1,5-c]pyrimidin-7-ylamino)-phenyl]-benzamide] | ≤ 13.6 µM | ≤ 16.9 µM
≤ 1.75 µM | NCCCC(=O)Nc1cccc(Nc2nc(-c3cccc4c3oc3ccccc34)cc3ccnn23)c1 [Example 22, 4-Amino-N-[3-(5-dibenzofuran-4-yl-pyrazolo[1,5-c]pyrimidin-7-ylamino)-phenyl]-butyramide] | – | –
≤ 1.75 µM | COc1cccc(-c2ccc(-c3cc4c(Br)cnn4c(Nc4ccc(NC(=O)c5ccc(CCN)cc5)cc4)n3)cc2)c1 [Example 86, 4-(2-Amino-ethyl)-N-{4-[3-bromo-5-(3′-methoxy-biphenyl-4-yl)-pyrazolo[1,5-]pyrimidin-7-ylamino]-phenyl}-benzamide] | – | –
≤ 1.75 µM | Nc1ccc(C(=O)Nc2ccc(Nc3nc(-c4cccc5c4oc4ccccc45)cc4ccnn34)cc2)cc1 [Example 6, 4-Amino-N-[4-(5-dibenzofuran-4-yl-pyrazolo[1,5-c]pyrimidin-7-ylamino)-phenyl]-benzamide] | – | –
– | CN1CCN(Cc2ccc(C(=O)Nc3ccc(Nc4nc(-c5cccc(Br)c5)cc5ccnn45)cc3)cc2)CC1 [Example 2, N-{4-[5-(3-Bromo-phenyl)-pyrazolo[1,5-c]pyrimidin-7-ylamino]-phenyl}-4-(4-methyl-piperazin-1-ylmethyl)-benzamide] | ≤ 13.6 µM | ≤ 16.9 µM
≤ 1.75 µM | NCc1ccc(C(=O)Nc2ccc(Nc3nc(-c4cccc5c4oc4ccccc45)cc4ccnn34)cc2)cc1 [Example 19, 4-Aminomethyl-N-[4-(5-dibenzofuran-4-yl-pyrazolo[1,5-c]pyrimidin-7-ylamino)-phenyl]-benzamide] | ≤ 13.6 µM | ≤ 16.9 µM
≤ 1.75 µM | NCCc1ccc(C(=O)Nc2ccc(Nc3nc(-c4ccc(-c5ccc(F)cc5)cc4)cc4ccnn34)cc2)cc1 [Example 75, 4-(2-Amino-ethyl)-N-{4-[5-(4′-fluoro-biphenyl-4-yl)-pyrazolo[1,5-c]pyrimidin-7-ylamino]-phenyl}-benzamide] | – | –
≤ 2.45 µM | O=C(Cc1cccc(Cl)c1)Nc1ccc(Nc2nc(-c3cccc4c3oc3ccccc34)cc3ccnn23)cc1 [Example 12, 2-(3-Chloro-phenyl)-N-[4-(5-dibenzofuran-4-yl-pyrazolo[1,5-c]pyrimidin-7-ylamino) -phenyl]-acetamide] | – | –
≤ 1.75 µM | COc1ccc(-c2ccc(-c3cc4c(Br)cnn4c(Nc4ccc(NC(=O)c5ccc(CN)cc5)cc4)n3)cc2)cc1 [Example 88, 4-Aminomethyl-N-{4-[3-bromo-5-(4′-methoxy-biphenyl-4-yl)-pyrazolo[1,5-c]pyrimidin-7-ylamino]-phenyl}-benzamide] | – | –
≤ 1.75 µM | NCc1ccc(C(=O)Nc2ccc(Nc3nc(-c4cccc5c4oc4ccccc45)cc4c(Br)cnn34)cc2)cc1 [Example 91, 4-Aminomethyl-N-[4-(3-bromo-5-dibenzofuran-4-yl-pyrazolo[1,5-c]pyrimidin-7-ylamino) -phenyl]-benzamide] | – | –
– | CC(=O)Nc1cccc(-c2ccc(-c3cc4ccnn4c(Nc4ccc(NC(=O)c5ccc6c(c5)CCNC6)cc4)n3)cc2)c1 [Example 83, 1,2,3,4-Tetrahydro-isoquinoline-6-carboxylic acid {4-[5-(3′-acetylamino-biphenyl-4-yl)-pyrazolo[1,5-c]pyrimidin-7-ylamino]-phenyl}-amide] | ≤ 13.6 µM | ≤ 16.9 µM
≤ 1.75 µM | NCc1ccc(C(=O)Nc2ccc(Nc3nc(-c4ccc(-c5ccc(F)cc5)cc4)cc4c(Br)cnn34)cc2)cc1 [Example 89, 4-Aminomethyl-N-{4-[3-bromo-5-(4′-fluoro-biphenyl-4-yl)-pyrazolo[1,5-c]pyrimidin-7-ylamino]-phenyl}-benzamide] | – | –
≤ 2.45 µM | CC(=O)Nc1cccc(-c2cccc(-c3cc4ccnn4c(Nc4ccc(NC(=O)c5ccc(CN)cc5)cc4)n3)c2)c1 [Example 73, N-{4-[5-(3′-Acetylamino-biphenyl-3-yl)-pyrazolo[1,5-c]pyrimidin-7-ylamino]-phenyl}-4-aminomethyl-benzamide] | – | –
≤ 1.75 µM | COc1cccc(-c2ccc(-c3cc4ccnn4c(Nc4ccc(NC(=O)c5ccc6c(c5)CCNC6)cc4)n3)cc2)c1 [Example 77, 1,2,3,4-Tetrahydro-isoquinoline-6-carboxylic acid {4-[5-(3′-methoxy-biphenyl-4-yl)-pyrazolo[1,5-c]pyrimidin-7-ylamino]-phenyl}amide] | – | –
≤ 2.45 µM | NCc1ccc(C(=O)Nc2ccc(Nc3nc(-c4cccc(-c5ccccc5)c4)cc4ccnn34)cc2)cc1 [Example 71, 4-Aminomethyl-N-[4-(5-biphenyl-3-yl-pyrazolo[1,5-c]pyrimidin-7-ylamino)-phenyl]-benzamide] | – | –
≤ 1.75 µM | CC(=O)Nc1cccc(-c2ccc(-c3cc4ccnn4c(Nc4ccc(NC(=O)c5ccc(CCN)cc5)cc4)n3)cc2)c1 [Example 82, N-{4-[5-(3′-Acetylamino-biphenyl-4-yl)-pyrazolo[1,5-c]pyrimidin-7-ylamino]-phenyl}-4-(2-amino-ethyl)-benzamide] | – | –
≤ 1.75 µM | NCCc1ccc(C(=O)Nc2ccc(Nc3nc(-c4ccc(Br)cc4)cc4ccnn34)cc2)cc1 [Example 84, 4-(2-Amino-ethyl)-N-{4-[5-(4-bromo-phenyl)-pyrazolo[1,5-c]pyrimidin-7-ylamino]-phenyl}-benzamide] | – | –
≤ 1.75 µM | CC(=O)Nc1cccc(-c2ccc(-c3cc4c(Br)cnn4c(Nc4ccc(NC(=O)c5ccc(CN)cc5)cc4)n3)cc2)c1 [Example 90, N-{4-[5-(3′-Acetylamino-biphenyl-4-yl)-3-bromo-pyrazolo[1,5-c]pyrimidin-7-ylamino]-phenyl}-4-aminomethyl-benzamide] | – | –
≤ 2.45 µM | CC(C)(C)c1ccc(C(=O)Nc2ccc(Nc3nc(-c4cccc5c4oc4ccccc45)cc4ccnn34)cc2)cc1 [Example 10, 4-tert-Butyl-N-[4-(5-dibenzofuran-4-yl-pyrazolo[1,5-c]pyrimidin-7-ylamino)-phenyl]-benzamide] | – | –
≤ 2.45 µM | COc1cccc(-c2cccc(-c3cc4ccnn4c(Nc4ccc(NC(=O)c5ccc(CN)cc5)cc4)n3)c2)c1 [Example 74, 4-Aminomethyl-N-{4-[5-(3′-methoxy-biphenyl-3-yl)-pyrazolo[1,5-c]pyrimidin-7-ylamino]-phenyl}-benzamide] | – | –
